Patent US20210322412A1, “METHODS AND COMPOSITIONS FOR TREATING A CORONAVIRUS INFECTION” (priority 2020, published 2021)

Key:
human CCR2 receptors = human CCR2 receptors (Homo sapiens, UniProt P41597); experiment: CCR2 inhibitory activity; type: binding; conditions: Receptor CCR2
Method: (§1) The CCR2 and CCR5 inhibitory activity of (4-((3R,4R)-3-methoxytetrahydro-pyran-4-ylamino)piperidin-1-yl)(5-methyl-6-(((2R,6S)-6-(p-tolyl)tetrahydro-2H-pyran-2-yl)methylamino)pyrimidin-4-yl)methanone citrate was evaluated against human CCR2 receptors and human CCR5 receptors.

human CCR5 receptors = human CCR5 receptors (Homo sapiens, UniProt P51681); experiment: CCR5 inhibitory activity; type: binding; conditions: Receptor CCR5
Method: as §1

[1] = Sorption behavior (dynamic vapour sorption isotherms); type: physicochemical
Method: Sorption isotherms were generated using an IGAsorp water sorption monitor from Hiden Isochema. Adsorption and desorption isotherms were obtained at 25° C. with 10% r.h. step intervals ranging from 10% r.h. to 90% r.h.
For BR salt form only: Sorption isotherms were registered on a DVS-1 water sorption monitor from Surface Measurement Systems.

Chain of human CCR2 receptors (P41597 whole entry): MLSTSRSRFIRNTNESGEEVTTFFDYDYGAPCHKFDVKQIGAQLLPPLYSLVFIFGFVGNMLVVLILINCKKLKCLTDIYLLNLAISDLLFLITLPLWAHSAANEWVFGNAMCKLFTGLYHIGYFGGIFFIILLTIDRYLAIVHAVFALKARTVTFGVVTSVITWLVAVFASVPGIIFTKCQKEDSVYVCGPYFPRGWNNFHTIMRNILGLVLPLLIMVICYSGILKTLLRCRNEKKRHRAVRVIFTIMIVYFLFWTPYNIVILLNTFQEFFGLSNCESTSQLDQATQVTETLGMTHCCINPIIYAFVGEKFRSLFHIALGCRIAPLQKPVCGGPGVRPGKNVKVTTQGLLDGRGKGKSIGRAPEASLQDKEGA
Chain of human CCR5 receptors (P51681 whole entry): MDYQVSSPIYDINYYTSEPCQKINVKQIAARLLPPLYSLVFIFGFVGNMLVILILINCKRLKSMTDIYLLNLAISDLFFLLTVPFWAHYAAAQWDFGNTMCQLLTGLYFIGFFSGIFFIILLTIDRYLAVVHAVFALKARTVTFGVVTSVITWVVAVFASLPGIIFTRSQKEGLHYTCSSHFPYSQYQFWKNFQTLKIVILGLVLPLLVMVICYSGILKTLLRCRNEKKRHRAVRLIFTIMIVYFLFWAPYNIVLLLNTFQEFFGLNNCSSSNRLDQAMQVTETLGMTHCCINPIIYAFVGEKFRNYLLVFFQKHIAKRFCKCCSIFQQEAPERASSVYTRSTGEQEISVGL

`CO[C@H]1COCC[C@H]1NC1CCN(C(=O)c2ncnc(NC[C@H]3CCC[C@@H](c4ccc(C)cc4)O3)c2C)CC1.O=C(O)CC(O)(CC(=O)O)C(=O)O` [Compound 1, (4-((3R,4R)-3-Methoxytetrahydro-pyran-4-ylamino)piperidin-1-yl)(5-methyl-6-(((2R,6S)-6-(p-tolyl)tetrahydro-2H-pyran-2-yl)methylamino)pyrimidin-4-yl)methanone citrate] showed an IC50 (human CCR2 receptors) of 0.05 µM, a Ki (human CCR2 receptors) of 0.0042 µM and an IC50 (human CCR5 receptors) of 0.088 µM. For the same compound, the Ki (human CCR5 receptors) was 0.075 µM, the “state of the compound after the sorption experiment” value ([1]; after the sorption experiment) was “still remains as solid material” and the “stability against relative humidity” value ([1]; relative humidity, 25° C.) was “up to 80%”. It also gave an uptake of water ([1]; sorption experiment, relative humidity up to 80%, uptake reversible) of 2.6%.
